Tests used:
Assay in all cases: relative viability (nuclei count vs DMSO), 5 days (fraction); higher = more cells survive
[1] = compound: Cc1ccc2nc(NCCN)c3ncc(C)n3c2c1 + Cc1nc(Nc2ncc(C(=O)Nc3c(C)cccc3Cl)s2)cc(N2CCN(CCO)CC2)n1 [Dasatinib] (partner 0.075 µM)
In short: (§1)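 Lung cancer cell lines were seeded in 1536-well plates and dosed by pin tool the next day, with either a single drug or a fixed anchor-drug dose combined with five library-drug doses (not always all listed) spaced in √10 steps. Five days later, one step fixed the cells and stained their nuclei (final 0.05% Triton X-100, 1% formaldehyde, 1 ug/ml Hoechst), and nuclei were counted on 4× images. Relative viability is the nuclei count in treated wells divided by the count in vehicle wells, and each value is the median of duplicate plates.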

[2] = compound: Cc1ccc2nc(NCCN)c3ncc(C)n3c2c1 + O=C(c1cc(Cc2n[nH]c(=O)c3ccccc23)ccc1F)N1CCN(C(=O)C2CC2)CC1 [Olaparib] (partner 8 µM)
In short: as §1

[3] = compound: O=C(/C=C/c1ccccc1)NC(NC(=S)Nc1cccc2cccnc12)C(Cl)(Cl)Cl [Salubrinal] + CS(=O)(=O)N1CCN(Cc2cc3nc(-c4cccc5[nH]ncc45)nc(N4CCOCC4)c3s2)CC1 [Pictilisib] (partner 1 µM)
In short: as §1

[4] = compound: O=C(/C=C/c1ccccc1)NC(NC(=S)Nc1cccc2cccnc12)C(Cl)(Cl)Cl [Salubrinal] + O=C(c1cc(Cc2n[nH]c(=O)c3ccccc23)ccc1F)N1CCN(C(=O)C2CC2)CC1 [Olaparib] (partner 8 µM)
In short: as §1

**Q.** For UMC-11, which relative viability ([1]; first compound 0.04 µM) is on record?
**A.** The relative viability was 0.475.

**Q.** What about the relative viability ([1]; first compound 0.1265 µM) of the same cell line?
**A.** The relative viability was 0.477.

**Q.** What about the relative viability ([1]; first compound 0.4 µM) of the same cell line?
**A.** Its relative viability is 0.431.

**Q.** What about the relative viability ([1]; first compound 1.265 µM) of the same cell line?
**A.** The relative viability was 0.407.

**Q.** What about the relative viability ([1]; first compound 4 µM) of the same cell line?
**A.** Its relative viability is 0.387.

**Q.** What about the relative viability ([2]; first compound 0.04 µM) of the same cell line?
**A.** The relative viability was 0.376.

**Q.** And the relative viability ([2]; first compound 0.1265 µM)?
**A.** The relative viability was 0.355.

**Q.** What about the relative viability ([2]; first compound 0.4 µM) of the same cell line?
**A.** The relative viability was 0.388.

**Q.** What about the relative viability ([2]; first compound 1.265 µM) of the same cell line?
**A.** Its relative viability is 0.35.

**Q.** And the relative viability ([2]; first compound 4 µM)?
**A.** Its relative viability is 0.301.

**Q.** And the relative viability ([3]; first compound 0.08 µM)?
**A.** Its relative viability is 0.655.

**Q.** What about the relative viability ([3]; first compound 0.253 µM) of the same cell line?
**A.** The relative viability was 0.688.

**Q.** And the relative viability ([3]; first compound 0.8 µM)?
**A.** Its relative viability is 1.02.

**Q.** What about the relative viability ([3]; first compound 2.53 µM) of the same cell line?
**A.** Its relative viability is 0.933.

**Q.** What about the relative viability ([3]; first compound 8 µM) of the same cell line?
**A.** The relative viability was 0.882.

**Q.** What about the relative viability ([4]; first compound 0.08 µM) of the same cell line?
**A.** Its relative viability is 0.355.

**Q.** And the relative viability ([4]; first compound 0.253 µM)?
**A.** The relative viability was 0.368.

**Q.** What about the relative viability ([4]; first compound 0.8 µM) of the same cell line?
**A.** Its relative viability is 0.386.

**Q.** What about the relative viability ([4]; first compound 2.53 µM) of the same cell line?
**A.** Its relative viability is 0.337.

**Q.** What about the relative viability ([4]; first compound 8 µM) of the same cell line?
**A.** Its relative viability is 0.393.
